# “Also recorded” adds a separate entry of the source.
# Columns and labels:
# GLT-1 = assay: Immunocytochemistry of cultured astrocytes, GLT-1 staining; format: cell-based, rat; conditions: treated astrocytes
# Procedure: Primary astrocyte-enriched cultures were plated onto sterile 18 mm glass coverslips. After three washes in PBS, cells were permeabilized in 5% glacial acetic acid/95% ethanol (acid-alcohol) for 10 minutes. After washing, cells were incubated in a 1% normal goat serum for 30 minutes and then overnight at 4° C. in primary mouse anti-GFAP (1:500), rabbit anti-GLT-1 (1:500) or guinea pig anti-GLAST (1:2000). The following day, cells were washed and then incubated for 2 hours at room temperature with goat anti-mouse Alexa Fluor™-555 (Invitrogen Corporation, Carlsbad, Calif.) goat anti-guinea pig Alexa Fluor™-488 (Invitrogen Corporation, Carlsbad, Calif.) or goat anti-rabbit Alexa Fluor™-488 (Invitrogen Corporation, Carlsbad, Calif.; all at 1:250). Finally, cells were post-fixed in acid-alcohol and mounted with Vectashield (Vector Labs, Burlingame, Calif.) containing 4′,6-diamidino-2-phenylindole dihydrochloride hydrate (DAPI, Sigma Chemical Co., St Louis, Mo.), in order to visualize cell nuclei. The sections were examined with a fluorescence microscope, and images were captured with a Q-Fire cooled camera (Olympus, Melville, N.Y.). Confocal microscopy was also performed using a Zeiss LSM 510 Meta confocal microscope (Carl Zeiss AG, Oberkochen, Germany). Merged color images were processed using Adobe Photoshop 7.0 (Adobe Systems, San Jose, Calif.).
# MCP-1 (CCL2) = assay: ELISA of MCP-1 release from cultured astrocytes; format: cell-based, rat; conditions: seven days
# Procedure: After approximately 14 days (2 days after subplating into plates, DIV 14) astrocytes had formed a confluent monolayer. […] Phase contrast microscopy was then carried out in order to assess the morphology of cells after the various treatments. Length of astrocyte processes was quantified by measuring all processes in 2-3 phase contrast images/group by an independent observer, blinded to the treatment groups using Image J v1.34s (National Institutes of Health, Bethesda, Md.).
# Standard ELISA was performed for quantitative determination of MCP-1 and MIP-2 protein in cell culture supernatant. Assays were carried out according to the manufacturer's specifications (Biosource, Camarillo, Calif.) using the sandwich enzyme immunoassay procedure. Optical density at 450 nm was obtained using the MRX Revelations program (Dynex Technologies, Chantilly, Va.) and relative protein concentrations were determined by comparing samples to the standard curve generated.
# [1] = test system: L5 spinal nerve transected rats; assay: Mechanical allodynia after L5 spinal nerve transection in rats; format: in vivo, rat
# Procedure: Male Sprague Dawley rats (Harlan, Indianapolis, Ind.) weighing 150-175 g at the start of surgery were housed individually and maintained in a 12:12 light/dark cycle with ad libitum access to food and water. The animals were allowed to habituate to the housing facilities for 1 week before experiments began. Behavioral studies were performed in a quiet room between the hours of 7:00 and 10:00 A.M. The Institutional Animal Care and Use Committee at Dartmouth College approved all procedures in this study. Efforts were made to limit animal distress and use the minimum number of animals necessary to achieve statistical significance, in accord with guidelines set forth by the International Association for the Study of Pain.
# Unilateral mononeuropathy was produced according to the method described by Colburn et al. (1999. Exp. Neurol. 157:289-304). Briefly, rats were anesthetized by inhalation of halothane in an O2 carrier (induction, 4%; maintenance, 2%). […] The L6 transverse process was partially removed, exposing the L4 and L5 spinal nerves. The L5 spinal nerve was identified, separated, lifted, and transected, followed by removal of a 3-mm distal segment of nerve to prevent reconnection. […]
# Mechanical sensitivity to non-noxious stimuli was measured by applying 2 g and 12 g von Frey filaments (Stoelting, Wood Dale, Ill.) to the plantar surface of the ipsilateral hind paw (n=8-12/group). […]
# GLAST = assay: Western blot of ipsilateral lumbar spinal cord, GLAST protein; format: in vivo, rat; conditions: day 12 post-transection
# Procedure: Tissue was collected from 4-5 rats/group on postoperative days 4 or 12. In order to obtain both mRNA and protein from the same tissue sample, the L5 region of the spinal cord (ipsilateral to the injury), was isolated and placed in PBS supplemented with protease inhibitor cocktail (1:1000, Sigma Chemical Co., St. Louis, Mo.) and RNase inhibitor (0.75 U/μL Ambion, Austin, Tex.). Samples were sonicated in five one-second bursts at half-maximal power, centrifuged at 6500 rpm for 15 minutes at 4° C. Protein-containing supernatants were collected and stored at −80° C. until further processing by Western blot analysis. The pellet was treated with TRIzol reagent (Invitrogen, Carlsbad, Calif.) for the extraction of total RNA according to the manufacturer's specifications.
# Protein obtained from L5 lumbar spinal cord was quantified using the Lowry method (DC assay, Bio-Rad, Hercules, Calif.). Forty micrograms of protein and standard protein markers were subjected to SDS polyacrylamide gel electrophoresis (7.5% gel, Bio-Rad, Hercules, Calif.) and id transferred to polyvinylidene difluoride (PVDF, Bio-Rad, Hercules, Calif.) filters. Nonspecific binding was blocked by incubation with 5% milk/PBS-T at room temperature for 1 hour followed by incubation overnight at 4° C. with monoclonal guinea pig anti-GLT-1 or guinea pig anti-GLAST (1:2500, Chemicon). […]
# [2] = test system: cyclic-adenosine-5′,3′-monophosphate (cAMP)-specific phosphodiesterase (PDE IV); conditions: literature; cited from earlier work
smiles,measurement,setting,value
CCCn1cnc2c1c(=O)n(CCCCC(C)=O)c(=O)n2C [propentofylline],GLT-1 staining,GLT-1,concomitant increase in GLT-1 staining
same,LPS-induced MCP-1 (CCL2) release,"MCP-1 (CCL2); LPS 1 μg/ml, propentofylline 1000 μM, db-cAMP 250 μM",reversed by co-treatment with propentofylline; also recorded: significantly attenuated
same,"basal MCP-1 (CCL2) release, treatment alone",MCP-1 (CCL2); without LPS,had no effect
same,mechanical allodynia (paw withdrawals to 12 g von Frey filament),"[1]; 10 μg daily via lumbar puncture, from one hour prior to transection, vs. L5 saline",significant decrease in mechanical allodynia; also recorded: robustly inhibited the development of mechanical allodynia at all time points tested
same,mechanical allodynia compared with normal group,"[1]; from day 5 onward (day 5, 7, 9 and 12), P>0.05",no longer discernable from the normal group
same,GLAST protein,GLAST,further decreased by propentofylline treatment; also recorded: slight decrease
same,PDE IV,[2],inhibit
